{"source": "paper PMC6858493", "about": "(ACS chemical biology, 2019)", "key": {"[1]": {"test_system": "E. coli", "assay": "UV-induced filamentation of E. coli", "assay_type": "cell-based, Escherichia coli"}, "[2]": {"target": "h20S (β5) (Homo sapiens, UniProt P28074)", "assay": "h20S β5 subunit inhibition assay", "assay_type": "biochemical"}, "[3]": {"target": "h20S (β1) (Homo sapiens, UniProt P28072)", "assay": "h20S β1 subunit inhibition assay", "assay_type": "biochemical"}, "[4]": {"test_system": "E. coli", "assay": "Ciprofloxacin persister cell quantification", "assay_type": "cell-based, Escherichia coli"}, "[5]": {"target": "h20S (β2) (Homo sapiens, UniProt Q99436)", "assay": "h20S β2 subunit inhibition assay", "assay_type": "biochemical", "details": "60 min enzyme-inhibitor pre-incubation; mean ± SD, n=3"}, "[6]": {"test_system": "E. coli", "assay": "E. coli exponential growth rate", "assay_type": "cell-based, Escherichia coli", "details": "100 μM compound"}, "[7]": {"test_system": "E. coli", "assay": "Ciprofloxacin MIC measurement", "assay_type": "cell-based, Escherichia coli", "details": "wild-type cells, 100 μm 11"}, "[8]": {"target": "Lon (Escherichia coli, UniProt P0A9M0)", "sequence (P0A9M0 whole entry)": "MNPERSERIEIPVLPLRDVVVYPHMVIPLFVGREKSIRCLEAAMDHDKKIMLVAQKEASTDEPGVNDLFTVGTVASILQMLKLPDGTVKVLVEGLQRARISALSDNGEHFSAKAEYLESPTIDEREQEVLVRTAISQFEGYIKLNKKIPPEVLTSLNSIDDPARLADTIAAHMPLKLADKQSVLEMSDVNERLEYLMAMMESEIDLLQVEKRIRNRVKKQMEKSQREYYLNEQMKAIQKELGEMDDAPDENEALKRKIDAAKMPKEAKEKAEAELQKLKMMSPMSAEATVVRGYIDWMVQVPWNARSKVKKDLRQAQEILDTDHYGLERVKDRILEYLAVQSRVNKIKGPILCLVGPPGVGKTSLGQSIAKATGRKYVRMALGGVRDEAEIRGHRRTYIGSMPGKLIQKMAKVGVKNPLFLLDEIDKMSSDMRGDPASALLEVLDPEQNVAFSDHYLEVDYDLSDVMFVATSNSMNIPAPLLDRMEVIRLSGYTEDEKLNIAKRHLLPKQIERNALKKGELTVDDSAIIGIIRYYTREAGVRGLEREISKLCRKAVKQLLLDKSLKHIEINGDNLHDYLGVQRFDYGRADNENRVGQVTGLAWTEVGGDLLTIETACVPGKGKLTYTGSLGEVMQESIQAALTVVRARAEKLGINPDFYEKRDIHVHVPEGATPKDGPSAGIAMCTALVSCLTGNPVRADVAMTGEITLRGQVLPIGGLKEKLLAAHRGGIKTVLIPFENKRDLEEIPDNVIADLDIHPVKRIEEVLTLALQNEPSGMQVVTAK", "assay": "biochemical", "assay_type": "biochemical, E. coli", "details": "for inhibition of recombinant Lon: with varied pre-incubation time"}, "[9]": {"test_system": "Lon", "details": "ratio of normalized cleavage rates at 25 μM substrate"}, "[10]": {"test_system": "RAW 264.7 murine macrophages", "assay": "cells", "assay_type": "cell-based", "details": "Mus musculus, RAW264.7, 24 h, read-out: EC50 (cell killing)"}, "[11]": {"test_system": "E. coli Lon", "details": "cited from earlier work"}, "[12]": {"details": "60 min enzyme-inhibitor pre-incubation, mean ± SD, n=3"}}}
{"compound": "CC(C)C[C@H](NC(=O)[C@H](CC(C)(C)C)NC(=O)[C@H](CCCCNC(=N)N)NC(=O)c1cnccn1)B(O)O", "note": "[compound 11, Pyz-hArg-nptGly-Leu-B(OH)2]", "values": [{"measurement": "filamentation after UV stress", "setting": "[1]; sulA mutant strain", "result": "no effect on filamentation"}, {"measurement": "filamentation after UV stress", "setting": "[1]; wild-type, treatment during 6 h outgrowth following UV-stress", "result": "dose-dependent increase in filamentation"}, {"measurement": "IC50", "setting": "[2]; [12]", "result": "290 ± 6.4", "unit": "nM"}, {"measurement": "Relative activity (ratio of BZ IC50 to 11 IC50)", "setting": "[2]; h20S β5", "result": 0.1}, {"measurement": "IC50", "setting": "[3]; [12]", "result": "1900 ± 140", "unit": "nM"}, {"measurement": "Relative activity (ratio of BZ IC50 to 11 IC50)", "setting": "[3]; h20S β1", "result": 0.2}, {"measurement": "time course of killing", "setting": "[4]; co-treatment with ciprofloxacin and 100 μM 11", "result": "faster death than wild type"}, {"measurement": "fraction of cells that tolerated ciprofloxacin", "setting": "[4]; sulA mutant strain", "result": "this effect was abrogated"}, {"measurement": "fraction of cells that tolerated ciprofloxacin", "setting": "[4]; wild-type cells, co-treatment with 10 μg/mL ciprofloxacin, LB and M9 media", "result": "statistically-significant reduction"}, {"measurement": "IC50", "setting": "[5]", "result": "430 ± 40", "unit": "nM"}, {"measurement": "effect on exponential growth rates", "setting": "[6]", "result": "nor treatment with 100 μM 11 or BZ had an effect"}, {"measurement": "effect on MIC of ciprofloxacin", "setting": "[7]", "result": "nor treatment of wild-type cells with 100 μm 11 altered the overall MIC"}, {"measurement": "Relative activity (ratio of BZ IC50 to 11 IC50)", "setting": "[8]; Lon", "result": 1.2}, {"measurement": "kinact/KI relative to BZ", "setting": "[8]; time-dependent inhibition of Lon", "result": "two-fold higher"}, {"measurement": "inhibition of recombinant Lon", "setting": "[8]", "result": "potent, time-dependent inhibition"}]}
{"compound": "Mo-Leu-Leu-Phe-ACC [compound 1]", "values": [{"measurement": "selectivity of cleavage, Lon vs h20S", "setting": "[9]", "result": "cleaved equally effectively by both Lon and the proteasome"}]}
{"compound": "CC(C)C[C@H](NC(=O)[C@H](Cc1ccccc1)NC(=O)c1cnccn1)B(O)O", "note": "[BZ, bortezomib, reference compound]", "values": [{"measurement": "EC50", "setting": "[10]", "result": 160, "unit": "nM"}, {"measurement": "effect on exponential growth rates", "setting": "[6]", "result": "nor treatment with 100 μM 11 or BZ had an effect"}, {"measurement": "IC50", "setting": "[8]", "result": "500 ± 230", "unit": "nM"}, {"measurement": "inhibition of recombinant Lon", "setting": "[8]", "result": "potent, time-dependent inhibition"}]}
{"compound": "CN(C)c1cccc2c(S(=O)(=O)F)cccc12", "note": "[dansyl fluoride]", "values": [{"measurement": "inhibition of E. coli Lon", "setting": "[11]", "result": "only at mM concentrations"}]}
